The source of these data is US20260158172A1, “CELL DEATH METHOD USING CRISPR/CAS SYSTEM HAVING SINGLE-STRAND BREAK ACTIVITY AND PARP INHIBITOR” (INSTITUTE FOR BASIC SCIENCE, priority 2023, published 2026).

This assay concerns HCT-116 tumors. The experiment in a line: Tumor growth inhibition experiment in HCT-116 tumor xenograft mouse model. The following applies: for Volume of Tumor (mm^3, Average, n = 4): HCT-116 xenograft, BALB/c nude mice, intratumoral injection every two days, eight injections, olaparib 28.5 μg. Type of assay: in vivo. The procedure: For the delivery of RNP, lipid nanoparticles (LNPs) were prepared using an ethanol dilution method. All lipids (the molar ratio of C12-200/DOPE/cholesterol/DMG-PEG/DOTAP in the LNPs was fixed at 35/16/46.5/2.5/11.11) were dissolved in ethanol. RNPs (with a molar ratio of sgRNA to Cas9 protein of 1:1) were dissolved in PBS (pH 7.4). The two solutions were rapidly mixed by pipetting at a PBS-to-ethanol ratio of 3:1 (v/v) and a total lipid-to-sgRNA ratio of 20:1 (w/w), followed by incubation at room temperature for 15 minutes. For in vivo experiments, the RNP-loaded LNP formulation was purified by dialysis against PBS for 2 hours using a dialysis kit (Pur-A-Lyzer Midi Dialysis Kits, MWCO 3.5 kDa) and then concentrated using Amicon Ultra-15 centrifugal filters (MWCO 50 kDa), followed by intratumoral injection (50 μg of sgRNA-loaded LNP per injection). The above C12-200 was purchased from Cayman Chemical. The above DOPE, DOTAP, and DMG-PEG (MW 2000) were purchased from Avanti Polar Lipids. The above Cholesterol, the Pur-A-Lyzer Midi Dialysis Kit (MWCO, 3.5 kDa), and the Amicon Ultra-15 centrifugal filters (MWCO, 50 kDa) were purchased from Sigma. All chemicals were used without further purification.
Female BALB/c nude mice (5 weeks old) were purchased from Orient Bio and used for all animal experiments. The mice were handled in accordance with the guidelines of the Institutional Animal Care and Use Committee of Ulsan National Institute of Science and Technology ([…]-23-09). In the case of the xenograft model, 5×10^6 HCT116 cells stably expressing Cas9WT were suspended in 60 μL of PBS (pH 7.4) and mixed with 60 μL of Matrigel (BD Bioscience), followed by subcutaneous injection into the flank of each mouse. Tumor volume and body weight were measured every two days. Tumor volume was calculated using the following formula.
In the above formula, V represents the volume, a represents the length of the long axis, and b represents the length of the short axis.
When the tumor volume reached approximately 80 mm^3, the mice were randomly divided into multiple groups for experimentation.
To evaluate the antitumor efficacy of the administered materials in each group, mice bearing tumors established according to Experimental Example 1.11 were anesthetized with 1.5% isoflurane, and the administered material (PBS or LNP) was intratumorally injected every two days. A total of eight injections were performed over a period of 14 days, and the mice were sacrificed on day 25.
The tumor growth inhibition rate was calculated using the following formula.
Here, VDay0,treatment and VDay24,treatment represent the tumor volumes of the treatment group on day 0 and day 24, respectively, and VDay0,control and VDay24,control represent the tumor volumes of the control group administered with PBS on day 0 and day 24, respectively.
The tumor xenograft mouse model prepared according to Experimental Example 1.10 was randomly divided into four groups. Then, a PARP inhibitor and a CRISPR/nCas composition for cell death were administered according to Experimental Example 1.11 to confirm tumor growth inhibition effects. Specifically, 28.5 μg of olaparib diluted in PBS and the CRISPR/nCas composition for cell death were administered.

Consider `O=C(c1cc(Cc2n[nH]c(=O)c3ccccc23)ccc1F)N1CCN(C(=O)C2CC2)CC1` [Olaparib, olaparib], for which the “Volume of Tumor (mm^3, Average, n = 4)” value worked out at 82.1 mm^3 (Day 0); 117.0 mm^3 (Day 2); 172.6 mm^3 (Day 4); 241.8 mm^3 (Day 6); 320.3 mm^3 (Day 8); 371.2 mm^3 (Day 10). In addition, the “Volume of Tumor (mm^3, Average, n = 4)” value (Day 12) turned out to be 476.0 mm^3; the “Volume of Tumor (mm^3, Average, n = 4)” value (Day 14) is listed as 542.7 mm^3; the “Volume of Tumor (mm^3, Average, n = 4)” value (Day 16) is given as 610.7 mm^3; the “Volume of Tumor (mm^3, Average, n = 4)” value (Day 18) came to 702.9 mm^3; the “Volume of Tumor (mm^3, Average, n = 4)” value (Day 20) was 847.8 mm^3; the “Volume of Tumor (mm^3, Average, n = 4)” value (Day 22) was found to be 907.4 mm^3. Moreover, the “Volume of Tumor (mm^3, Average, n = 4)” value (Day 24) stood at 996.7 mm^3. Also, the “Tumor Inhibition Rate (%)” value (calculated from tumor volumes on day 0 and day 24 versus PBS control, HCT-116 xenograft mice) was 8.10%.
